Laboratory results taken from article PMC5118696, “Identification of inhibitors that dually target the new permeability pathway and dihydroorotate dehydrogenase in the blood stage of Plasmodium falciparum” (Scientific Reports, 2016).
Read-outs that look alike come from different tables or passages of the source.

Assays:
[1] = system: Hyp1-NLuc Plasmodium falciparum-infected erythrocytes (new permeability pathway, NPP); test: microbe, parasite or virus in culture; conditions: Erythrocyte, 0.33 h, read-out: Mean RLU at 28 min (As % of DMSO control)
[2] = system: Hyp1-NLuc Plasmodium falciparum-infected erythrocytes (new permeability pathway, NPP); test: microbe, parasite or virus in culture; conditions: Erythrocyte, 0.33 h, read-out: % of control remaining

| Structure (SMILES) | activity at 2 µM [1] | activity at 2 µM [2] |
| --- | --- | --- |
| COCCN(C(=O)Cc1cccs1)C(C(=O)NCc1ccc(OC)cc1)c1ccc(C(C)C)cc1 (centres unmarked) [MMV666105] | 100% | 113% |
| Nc1ccn(C2O[C@H](CO)[C@@H](O)[C@H]2O)c(=O)n1 (some centres unmarked) [MMV638723] | 86.2% | 88.6% |
| Cc1c(C)n(CC(O)CNC2CCCCC2C)c2ccccc12 (centres unmarked) [MMV665806] | 106% | 108% |
| Cc1ccc(F)cc1NC(=O)c1cc(Cl)ccc1Nc1ccccc1 [MMV007275] | 106% | 116% |
| CC(C)CCNCC(O)Cn1c2ccccc2c2ccccc21 (centres unmarked) [MMV006787] | 97.5% | 98.6% |
| Cc1cc(N(C)C)nc(Nc2ccc(NC(=O)Nc3ccccc3)cc2)n1 [MMV020243] | 106% | 104% |
| Cc1ccc(C2CC(C(F)(F)F)n3nc(C(=O)N4CCN(C(c5ccccc5)c5ccccc5)CC4)cc3N2)cc1 (centres unmarked) [MMV000699] | 101% | 100% |
| COc1ccc(C2c3ccc4ccccc4c3Oc3ncn(CCCN(C)C)c(=N)c32)cc1 (centres unmarked) [MMV667491] | 87.3% | 69.1% |
| CCOC(=O)c1c(NC(=O)c2ccccc2)sc2c(O)c(CN(CC)CC)ccc12 [MMV665831] | 103% | 103% |
| C=CCc1c(C)nc2ccccc2c1O [MMV006913] | 116% | 115% |
| COc1ccccc1C(=O)ON=C(N)Cc1cccc2ccccc12 [MMV666686] | 102% | 96.4% |
| Oc1ccc(C(=C(Cl)Cl)c2ccc(O)cc2)cc1 [MMV665949] | 90% | 95.5% |
| COc1cc2cc(C(=O)Nc3ccccc3)c(N)nc2cc1OC [MMV006767] | 119% | 119% |
| CCOc1ccc(N2C(N)=NC(N)=NC2(C)C)cc1 [MMV667486] | 98.6% | 98% |
| c1ccc(CNc2nc(Nc3ccccc3)nc3ccccc23)cc1 [MMV006169] | 102% | 114% |
| CCC(O)c1ccc(Br)cc1NC(=O)c1cccc(Cl)c1 (centres unmarked) [MMV020654] | 113% | 105% |
| Oc1ccccc1CNCC12CC3CC(CC(C3)C1)C2 [MMV020788] | 108% | 109% |
| COc1cccc(Nc2nc(N)c3ccccc3n2)c1 [MMV019199] | 98.1% | 97.7% |
| COc1nc(Nc2ccc(C(C)C)cc2)nc(OC)n1 [MMV007808] | 110% | 110% |
| Cn1c(=O)c2cc(C(=O)NCCCN3CCCCCC3)sc2c2ccccc21 [MMV019313] | 104% | 74.1% |
| CCN(CC)CCNc1ccnc2cc3ccccc3cc12 [MMV006303] | 109% | 107% |
| O=C(NCc1ccco1)C1CCN(S(=O)(=O)c2ccc(Br)cc2)CC1 [MMV007430] | 114% | 112% |
| O=C(Nc1ccc(Cl)c(Cl)c1)Nc1ccc(Cl)c(Cl)c1 [MMV665852] | 117% | 125% |
| CC(C)(C)c1ccc2c(c1)CN(Cc1ccc(Cl)cc1)CO2 [MMV000442] | 109% | 113% |

| Structure (SMILES) | activity at 2 µM [1] | activity at 2 µM [2] |
| --- | --- | --- |
| CN(C)CCNc1cc(-c2ccccc2)nc2ccccc12 [MMV006704] | 90.8% | 92% |
| CCCN(CCC)CC(O)COc1ccccc1C(=O)Nc1ccccc1 (centres unmarked) [MMV006455] | 105% | 104% |
| COc1ccc(CNC(=O)c2cc3c(=O)n4ccccc4nc3n(CCc3ccccc3)c2=N)cc1 [MMV665881] | 104% | 98% |
| Cc1ccc(-c2nc3ccccc3o2)cc1NCc1cc(Cc2ccccc2)ccc1O [MMV020912] | 99.2% | 94.7% |
| Clc1cc(Br)ccc1-c1ccc(CNCC2CCNCC2)o1 [MMV019918] | 114% | 111% |
| CCC1(C)CC(CCNCc2ccccc2O)(c2ccc(C)cc2)CCO1 (centres unmarked) [MMV019406] | 107% | 105% |
| CSc1ccccc1C(=O)Nc1nc(-c2ccccn2)cs1 [MMV001246] | 112% | 106% |
| Cc1ccc(Cn2c(N3CCC(C(=O)NCc4cccs4)CC3)nc3ccccc32)cc1 [MMV007564] | 96.6% | 104% |
| Brc1ccc(Nc2nc3ccccc3nc2Nc2ccc(Br)cc2)cc1 [MMV007224] | 95.5% | 104% |
| Cc1cc(C)c2nc(N3CCC(C(=O)NCCCN4CCC(N5CCCCC5)CC4)CC3)sc2c1 [MMV019780] | 107% | 111% |
| CCOc1cc(Cl)c(C(C)NC(=O)c2ccccc2)cc1OCC (centres unmarked) [MMV665800] | 100% | 111% |
| Cc1ccc(Nc2nc(N)c3ccccc3n2)cc1Cl [MMV011522] | 95.7% | 99.9% |
| c1ccc2cc3c(Nc4ccc(N5CCOCC5)cc4)ccnc3cc2c1 [MMV006861] | 109% | 102% |
| CCOC(=O)c1c(C)n(-c2ccccc2)c2ccc(OC(=O)c3cc(OC)c(OC)c(OC)c3)cc12 [MMV396664] | 94.9% | 97.3% |
| O=C(NC1CCCCC1)C(c1cccs1)N(CCc1ccccc1)C(=O)c1ccco1 (centres unmarked) [MMV666106] | 96.6% | 105% |
| CC(O)(c1ccc(Cl)cc1)C(CN1CCCCC1)c1ccccc1 (centres unmarked) [MMV000620] | 100% | 114% |
| Cc1ccc(Cl)cc1N1CCN(CCCNC(=O)C2CCN(c3nc4ccccc4[nH]3)CC2)CC1 [MMV019746] | 105% | 112% |
| O=C(NC(c1ccccc1)c1ccc2cccnc2c1O)c1ccccc1 (centres unmarked) [MMV666080] | 104% | 114% |
| CCN1CCN(c2c(C(=O)c3ccccc3)cnc3cc(OC)c(OC)cc23)CC1 [MMV008474] | 97.3% | 102% |
| Cc1ccc2cc3c(N)c4c(C)ccc(C)c4nc3nc2c1 [MMV666079] | 96% | 104% |
| Cc1ccc(-c2cc3nc4c(c(O)n3n2)CCCC4)cc1 [MMV006937] | 100% | 58.4% |
| CCOc1cc2c(cc1OCC)C(c1cc(OC)c(O)cc1Cl)NCC2 (centres unmarked) [MMV008956] | 102% | 100% |
| O=C(Nc1ccc(C23CC4CC(CC(c5ccccc5)(C4)C2)C3)cc1)c1cccs1 [MMV007574] | 106% | 111% |
| O=C1c2ccccc2C2=Nc3ccccc3SC(c3cccc(F)c3)C12 (centres unmarked) [MMV006389] | 98.3% | 102% |

| Structure (SMILES) | activity at 2 µM [1] | activity at 2 µM [2] |
| --- | --- | --- |
| CC1CCN(Cc2ccc(NC(=O)c3cc4ccc5cccnc5c4[nH]3)cc2)CC1 [MMV020549] | 102% | 90.5% |
| O=C(Nc1ccccc1O)c1ccc(Oc2cccc(C(=O)Nc3ccccc3O)c2)cc1 [MMV665888] | 102% | 104% |
| Cc1ccc(-c2cc3c(SCC(=O)Nc4cc(C(F)(F)F)ccc4Cl)nccn3n2)cc1 [MMV396680] | 106% | 101% |
| C=C(C)CCC(C)N1CCC(N2CCC(C(=O)NCCc3ccccc3)CC2)CC1 (centres unmarked) [MMV666110] | 108% | 116% |
| Cc1c(C)n(Cc2ccc(F)cc2)c2ccc(C(=O)NCc3ccco3)cc12 [MMV008149] | 102% | 118% |
| c1ccc2c(NCCCCCCNc3c4c(nc5ccccc35)CCCC4)c3c(nc2c1)CCCC3 [MMV019555] | 101% | 109% |
| Cc1ccc(C)c(Cn2c(N3CCC(C(=O)NCc4cccs4)CC3)nc3ccccc32)c1 [MMV019741] | 104% | 112% |
| COc1cccc(C2(C)Nc3ccccc3-c3nc4ccccc4n32)c1 (centres unmarked) [MMV396719] | 105% | 105% |
| O=C(Nc1ccccc1O)c1ccc(-c2ccc(Cl)cc2Cl)o1 [MMV665948] | 105% | 120% |
| COc1ccc(-c2cc3c(SCC(=O)Nc4cc(C(F)(F)F)ccc4Cl)nccn3n2)cc1 [MMV396679] | 106% | 105% |
| CC1(c2ccccc2)Nc2ccccc2-c2nc3ccccc3n21 (centres unmarked) [MMV396715] | 102% | 100% |
| COc1ccccc1CNC(=O)CCn1c(=O)[nH]c2ccccc2c1=O [MMV665916] | 98.8% | 98.4% |
| CC(C)(C)CC(C)(C)NCC(O)COc1ccc2c(c1)CCC2 (centres unmarked) [MMV665817] | 106% | 120% |
| CCOc1ccc(Nc2c3ccccc3nc3ccccc23)cc1 [MMV000304] | 107% | 109% |
| COc1ccc(-c2c(C)nn3c(N)c(C#N)cnc23)cc1OC [MMV396797] | 104% | 89.6% |
| CCN1CCN(Cc2ccc(NC(=O)c3cc4ccc5cccnc5c4[nH]3)cc2)CC1 [MMV020548] | 92.8% | 55.5% |
| COc1ccc(CCN2CCC(CN(C)Cc3cnn(-c4ccccc4)c3)CC2)cc1 [MMV666069] | 102% | 105% |
| COc1ccc(C(C)=O)cc1N1C(=O)C2C(C1=O)C1(c3ccccc3)C(=O)C2(c2ccccc2)C(c2ccc(C)cc2)=C1c1ccc(C)cc1 (centres unmarked) [MMV007695] | 98.9% | 98.4% |
| CCCCOc1ccc(C(=O)Nc2cc(C)on2)cc1 [MMV007906] | 117% | 115% |
| COc1ccc(C(O)(CCC(C)C)C(CN2CCOCC2)c2ccc(Cl)cc2)cc1 (centres unmarked) [MMV000617] | 116% | 131% |
| CCOc1ccc(C2N(C)c3ccccc3N2C)cc1 [MMV075490] | 117% | 116% |
| Cc1cccc(-n2ncc3c(=O)[nH]c(-n4nc(C)cc4NC(=O)c4cc5ccccc5o4)nc32)c1 [MMV403679] | 109% | 109% |
